Experimental data from patent US20120214760A1, “TREATMENT OF URINARY TRACT INFECTIONS WITH ANTIBACTERIAL AMINOGLYCOSIDE COMPOUNDS” (Achaogen, Inc., priority 2009, published 2012).
In brackets after ≈: the same amount, converted by molar mass.

Legend:
[1] = system: E. coli ATCC 25922 (AECO001); experiment: MIC, CLSI broth microdilution; assay type: cell-based; settings: Escherichia coli, ATCC25922, read-out: MIC AECO001, Table 1; AECO001 is ATCC25922
Protocol: (§1) Minimum inhibitory concentrations (MIC) were determined by reference Clinical and Laboratory Standards Institute (CLSI) broth microdilution methods per M7-A7 [2006]. Quality control ranges utilizing E. coli ATCC 25922, P. aeruginosa ATCC 27853 and S. aureus ATCC 29213, and interpretive criteria for comparator agents were as published in CLSI M100-S17 [2007]. Briefly, serial two-fold dilutions of the test compounds were prepared at 2× concentration in Mueller Hinton Broth. The compound dilutions were mixed in 96-well assay plates in a 1:1 ratio with bacterial inoculum. The inoculum was prepared by suspension of a colony from an agar plate that was prepared the previous day. Bacteria were suspended in sterile saline and added to each assay plate to obtain a final concentration of 5×10^5 CFU/mL. The plates were incubated at 35° C. for 20 hours in ambient air.

[2] = system: P. aeruginosa ATCC 27853 (APAE001); experiment: MIC, CLSI broth microdilution; assay type: cell-based; settings: Pseudomonas aeruginosa, ATCC27853, read-out: MIC APAE001, Table 1; APAE001 is ATCC27853
Protocol: as §1

Compound | MIC [1] [µg/mL] | MIC [2] [µg/mL]
CN[C@@H]1[C@@H](O)[C@@H](O[C@@H]2[C@@H](O)[C@H](O[C@H]3OC(CNCCCCCN)=CC[C@H]3N)[C@@H](N)C[C@H]2NC(=O)[C@@H](O)CCN)OC[C@]1(C)O [Example 44, 6′-(5-Amino-pentyl)-1-(4-amino-2(S)-hydroxy-butyryl)-sisomicin] | < 1 | 1 to 16 (≈ 1.58 to 25.2 µM)
CN[C@@H]1[C@@H](O)[C@@H](O[C@@H]2[C@@H](O)[C@H](O[C@H]3OC(CN)=CC[C@H]3NCC3CCNC3)[C@@H](N)C[C@H]2NC(=O)[C@@H](O)CCN)OC[C@]1(C)O (stereo partly drawn) [Example 84, 2′-(Methyl-pyrrolidin-3-yl)-1-(4-amino-2(S)-hydroxy-butyryl)-sisomicin] | < 1 | 1 to 16 (≈ 1.58 to 25.3 µM)
CN[C@@H]1[C@@H](O)[C@@H](O[C@@H]2[C@@H](O)[C@H](O[C@H]3OC(CNCC4CCCN4)=CC[C@H]3N)[C@@H](N)C[C@H]2NC(=O)[C@@H](O)CCN)OC[C@]1(C)O (stereo partly drawn) [Example 49, 6′-(Methyl-pyrrolidin-2-yl)-1-(4-amino-2(S)-hydroxy-butyryl)-sisomicin] | < 1 | 1 to 16 (≈ 1.58 to 25.3 µM)
CN[C@@H]1[C@@H](O)[C@@H](O[C@@H]2[C@@H](O)[C@H](O[C@H]3OC(CNCC(O)CO)=CC[C@H]3N)[C@@H](N)C[C@H]2NS(=O)(=O)CCN)OC[C@]1(C)O (some centres unmarked) [Example 27, 6′-(2-Hydroxy-propanol)-1-(2-amino-ethylsulfonamide)-sisomicin] | 1 to 16 (≈ 1.59 to 25.4 µM) | > 16
CN[C@@H]1[C@@H](O)[C@@H](O[C@@H]2[C@@H](O)[C@H](O[C@H]3OC(CNCC4(O)CCNCC4)=CC[C@H]3N)[C@@H](N)C[C@H]2NC(=O)[C@@H](O)CCN)OC[C@]1(C)O [Example 31] | 1 to 16 (≈ 1.51 to 24.2 µM) | 1 to 16 (≈ 1.51 to 24.2 µM)
CN[C@@H]1[C@@H](O)[C@@H](O[C@@H]2[C@@H](O)[C@H](O[C@H]3OC(CNCCC(N)C4CC4)=CC[C@H]3N)[C@@H](N)C[C@H]2NC(=O)[C@@H](O)CN)OC[C@]1(C)O (stereo partly drawn) [Example 52, 6′-(3-Amino-3-cyclopropyl-propyl)-1-(3-amino-2(S)-hydroxy-propionyl)-sisomicin] | < 1 | 1 to 16 (≈ 1.58 to 25.3 µM)
CN[C@@H]1[C@@H](O)[C@@H](O[C@@H]2[C@@H](O)[C@H](O[C@H]3OC(CNCCO)=CC[C@H]3NC(=N)N)[C@@H](N)C[C@H]2N)OC[C@]1(C)O [Example 106, 6′-(2-Hydroxy-ethyl)-2′-guanidinium-sisomicin] | < 1 | 1 to 16 (≈ 1.87 to 30 µM)
CN[C@@H]1[C@@H](O)[C@@H](O[C@@H]2[C@@H](O)[C@H](O[C@H]3OC(CN)=CC[C@H]3NCC3CCCN3)[C@@H](N)C[C@H]2NC(=O)[C@@H](O)CCN)OC[C@]1(C)O (stereo partly drawn) [Example 85, 2′-(Methyl-pyrrolidin-2-yl)-1-(4-amino-2(S)-hydroxy-butyryl)-sisomicin] | < 1 | 1 to 16 (≈ 1.58 to 25.3 µM)
CNCC1=CC[C@@H](NC(=N)N)[C@@H](O[C@H]2[C@H](O)[C@@H](O[C@H]3OC[C@](C)(O)[C@H](NC)[C@H]3O)[C@H](N)C[C@@H]2N)O1 [Example 108, 6′-Methyl-2′-guanidinium-sisomicin] | < 1 | 1 to 16 (≈ 1.99 to 31.8 µM)
CN[C@@H]1[C@@H](O)[C@@H](O[C@@H]2[C@@H](O)[C@H](O[C@H]3OC(CNC[C@H]4C[C@H](N)C4)=CC[C@H]3N)[C@@H](N)C[C@H]2NC(=O)C2(O)CC(N)C2)OC[C@]1(C)O (some centres unmarked) [Example 60] | < 1 | 1 to 16 (≈ 1.55 to 24.9 µM)
CN[C@@H]1[C@@H](O)[C@@H](O[C@@H]2[C@@H](O)[C@H](O[C@H]3OC(CNCCCN)=CC[C@H]3N)[C@@H](N)C[C@H]2NC(=O)CO)OC[C@]1(C)O [Example 24, 6′-(3-Amino-propyl)-1-(2-hydroxy-acetyl)-sisomicin] | 1 to 16 (≈ 1.78 to 28.4 µM) | 1 to 16 (≈ 1.78 to 28.4 µM)
CN[C@@H]1[C@@H](O)[C@@H](O[C@@H]2[C@@H](O)[C@H](O[C@H]3OC(CNCCCCN)=CC[C@H]3N)[C@@H](N)C[C@H]2NC(=O)[C@@H](O)CCN)OC[C@]1(C)O [Example 43, 6′-(4-Amino-butyl)-1-(4-amino-2(S)-hydroxy-butyryl)-sisomicin] | < 1 | < 1
CN[C@@H]1[C@@H](O)[C@@H](O[C@@H]2[C@@H](O)[C@H](O[C@H]3OC(CN)=CC[C@H]3NC(=O)CC3CNCCO3)[C@@H](N)C[C@H]2NC(=O)[C@@H](O)CCN)OC[C@]1(C)O (stereo partly drawn) [Example 92, 2′-(Morpholin-2-yl-acetyl)-1-(4-amino-2(S)-hydroxy-butyryl)-sisomicin] | < 1 | > 16
